Reference: US20210253651A1, “METHOD FOR PRODUCING ORGANIC COMPOUND-ENCAPSULATING FERRITIN” (Ajinomoto Co., Inc., priority 2018, published 2021)
Structures can show the parent of a compound that is named as a salt.

How the values were obtained:
[1] = target: T1, HER2a-FTH ferritin (Homo sapiens, UniProt P02794); test: one-step incorporation of DOX into HER2a-FTH ferritin; format: physicochemical; conditions: pH 9, 50° C., 60 minutes, DOX 0.3 mg/L
T1 construct: pET20-FTH carrying a DNA encoding a human-derived ferritin H chain monomer as a template; made in house; host or cells: Escherichia coli BL21 (DE3), plasmid pET20-HER2a-FTH
T1 sequence (P02794 with tags, fused parts or gaps limits assumed): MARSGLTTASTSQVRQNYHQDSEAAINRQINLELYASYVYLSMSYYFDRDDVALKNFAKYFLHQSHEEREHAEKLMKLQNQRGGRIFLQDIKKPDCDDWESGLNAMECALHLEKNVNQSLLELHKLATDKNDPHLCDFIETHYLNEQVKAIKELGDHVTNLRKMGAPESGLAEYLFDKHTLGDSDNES
Procedure: First, PCR was carried out using pET20-FTH carrying a DNA encoding a human-derived ferritin H chain monomer as a template as well as the following primers: 5′-[…]-3′(SEQ ID NO: 15) and 5′-[…]-3′(SEQ ID NO: 16) in order to obtain a DNA encoding the human-derived ferritin H chain (HER2a-FTH) monomer in which a cancer recognition peptide (HER2a: MARSGL (SEQ ID NO: 14); M Houimel et al., Int. J. Cancer 92, 748-755. (2001) which is incorporated herein by reference in its entirety) is inserted and fused at the N-terminus of the ferritin monomer. The resulting PCR products were purified using Wizard DNA Clean-Up System (Promega Corporation), and then treated with restriction enzymes, Dpnl and Ndel (Takara Bio Inc.) for self-ligation in order to construct an expression plasmid (pET20-HER2a-FTH) carrying a gene encoding HER2a-FTH. […]
(§1) DOX was mixed with 1 mL of 50 mM Tris-HCl buffer (pH 9) that contains each mutate ferritin at a final concentration of 1 mg/mL, to achieve a final concentration of 0.3 mg/L, and then the resulting solutions were left to stand at 50° C. for 60 minutes. […] The concentration of contained protein was determined using the protein assay CBB solution (Nacalai Tesque, Inc.) as well as bovine albumin as a standard. The DOX concentration was determined based on analysis of the absorbance at 480 nm.

[2] = target: T2, FTH-U2AF ferritin (Homo sapiens, UniProt P02794); test: one-step incorporation of DOX into FTH-U2AF ferritin; format: physicochemical; conditions: pH 9, 50° C., 60 minutes, DOX 0.3 mg/L
T2 construct: pET20-FTH carrying a DNA encoding a human-derived ferritin H chain monomer as a template; made in house; host or cells: Escherichia coli BL21 (DE3), plasmid pET20-FTH-U2AF
T2 sequence (P02794 with tags, fused parts or gaps): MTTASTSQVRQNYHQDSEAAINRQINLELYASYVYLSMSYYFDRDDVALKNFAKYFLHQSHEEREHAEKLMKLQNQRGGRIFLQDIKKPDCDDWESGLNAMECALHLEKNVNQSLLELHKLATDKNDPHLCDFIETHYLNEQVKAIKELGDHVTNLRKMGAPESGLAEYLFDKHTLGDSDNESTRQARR
Procedure: PCR was carried out using pET20-FTH carrying a DNA encoding a human-derived ferritin H chain monomer as a template as well as the following primers: 5′-[…]-3′ (SEQ ID NO: 18) and 5′-[…]-3′ (SEQ ID NO: 13), in order to obtain a DNA encoding the human-derived ferritin H chain (FTH-U2AF) in which an RNA recognition peptide (U2AF: TRQARR (SEQ ID NO: 17) R Tan and AD Frankel, Proc Natl Acad Sci USA 92, 5282-5286. (1995) which in incorporated herein by reference in its entirety)) is inserted and fused at the C-terminus of the ferritin monomer. The resulting PCR products were purified using Wizard DNA Clean-Up System (Promega Corporation), and then treated with restriction enzymes, DpnI and NdeI (Takara Bio Inc.) for self-ligation in order to construct an expression plasmid (pET20-FTH-U2AF) carrying a gene encoding FTH-U2AF monomer. […]
as §1

COc1cccc2c1C(=O)c1c(O)c3c(c(O)c1C2=O)C[C@@](O)(C(=O)CO)C[C@@H]3OC1CC(N)C(O)C(C)O1 (some centres unmarked) [DOX, Doxorubicin hydrochloride]
incorporation efficiency of the reagent [1]: 14.6 % (wt)
incorporation efficiency of the reagent [2]: 17.9 % (wt)
